Data published in patent US8853238B2, “Fused heterocyclic compound and use thereof for pest control” (Sumitomo Chemical Company, Limited, priority 2010, dated 2014).

Columns and labels:
Assay type in all cases: in vivo
[1] = tested on: Bemisia tabaci; assay: Test Example 6: spray on tomato seedling with Bemisia tabaci instar larvae; conditions: 168 h; 500 ppm active ingredient; 20 ml/cup sprayed on tomato seedling with hatched Bemisia tabaci instar larvae; after 7 days at 25° C.
Protocol: On the other hand, Bemisia tabaci adult was released on a tomato seedling (the third true leaf stage) planted in a polyethylene cup, and made to lay eggs for about 72 hours. The tomato seedling was kept in a greenhouse for 8 days. When instar larvae hatched from the eggs, the above test spray solution was sprayed in the amount of 20 ml/cup. The cup was kept in a greenhouse at 25° C. After the keeping for 7 days, the number of surviving instar larvae on the tomato leaves was examined, and a control value was calculated according to the following equation: Control value (%)={1−(Cb×Tai)/(Cai×Tb))×100 wherein symbols represent as follows: Cb: the number of insects in a non-treated section before treatment, Cai: the number of insects in a non-treated section in observation, Tb: the number of insects in a treated-section before treatment, Tai: the number of insects in a treated-section in observation; wherein the non-treated section represents a section where the test spray solution prepared by diluting the formulation without the present compound in Formulation Example 5 with the same amount of water as in the treated-section was sprayed.

[2] = tested on: Aphis gossypii; assay: Test Example 3: drench at foot of cucumber seedling, then inoculation with Aphis gossypii; conditions: soil, 144 h; 500 ppm active ingredient; cucumber seedling drenched at its foot with 5 ml, kept 7 days at 25° C.; 30 Aphis gossypii inoculated; examined after 6 days; read-out: Control value
[3] = tested on: Aphis gossypii; assay: Test Example 2: root immersion of cucumber seedling, then inoculation with Aphis gossypii; conditions: 168 h; 500 ppm active ingredient; cucumber root part immersed in 5 ml; 30 Aphis gossypii inoculated one day after treatment; examined after further seven days
Protocol: A root part of a cucumber seedling (the first true leaf stage) from which soil had been washed off was immersed in 5 ml of each of the diluted solutions, and one day after treatment, on the cucumber leaf surface was inoculated with 30 Aphis gossypii (whole stage). After further seven days, the number of insect of living Aphis gossypii parasitized on the leaves of the cucumber was examined, and a control value was calculated according to the following equation: Control value (%)={1−(Cb×Tai)/(Cai×Tb))×100 wherein symbols represent as follows: Cb: the number of insects in a non-treated section before treatment, Cai: the number of insects in a non-treated section in observation, Tb: the number of insects in a treated-section before treatment, Tai: the number of insects in a treated-section in observation; wherein the non-treated section represents a section where the test diluted solution prepared by diluting the formulation without the present compound in Formulation Example 5 with the same amount of water as in the treated-section was used.

[4] = tested on: Nilaparvata lugens; assay: Test Example 4: spray on rice seedling, release of Nilaparvata lugens larvae; conditions: 144 h; 500 ppm active ingredient; rice seedling sprayed with 10 ml; third-fourth instar larvae of Nilaparvata lugens; after 6 days at 25° C.; read-out: Control value
[5] = tested on: Nilaparvata lugens; assay: Test Example 5: drench at foot of rice seedling, release of Nilaparvata lugens larvae; conditions: soil, 144 h; 500 ppm active ingredient; rice seedling drenched at its foot with 5 ml, kept 7 days; twenty third-fourth instar larvae of Nilaparvata lugens; examined after 6 days
Protocol: On the other hand, a rice seedling (2 weeks after sowing, the second leaf stage) planted in a plastic cup was drenched at its foot with 5 ml of each of the diluted solutions, and kept in a greenhouse of 25° C. for 7 days. Twenty third-fourth instar larvae of Nilaparvata lugens were released, and further kept in the greenhouse for 6 days, then the number of insect of living Nilaparvata lugens parasitized on the rice was examined, and a control value was calculated according to the following equation: Control value (%)={1−(Cb×Tai)/(Cai×Tb))×100 wherein symbols represent as follows: Cb: the number of insects in a non-treated section before treatment, Cai: the number of insects in a non-treated section in observation, Tb: the number of insects in a treated-section before treatment, Tai: the number of insects in a treated-section in observation; wherein the non-treated section represents a section where the test diluted solution prepared by diluting the formulation without the present compound in Formulation Example 5 with the same amount of water as in the treated-section was used.

[6] = tested on: Aphis gossypii; assay: Test Example 1: spray on cucumber seedling inoculated with Aphis gossypii; conditions: topical, 144 h; 500 ppm active ingredient (Formulation Example 5 diluted with water); 20 ml sprayed on cucumber seedling with about 30 Aphis gossypii; six days after spraying
Protocol: On the other hand, on a cucumber seedling (the first true leaf stage) planted in a plastic cup was inoculated with about 30 Aphis gossypii, and leaving it for a day. Twenty ml of each of the above test spray solutions was sprayed on this seedling. Six days after spraying, the number of the surviving Aphis gossypii parasitized on the leaves of the cucumber was examined, and a control value was calculated according to the following equation: Control value (%)={1−(Cb×Tai)/(Cai×Tb))×100 wherein symbols represent as follows: Cb: the number of insects in a non-treated section before treatment, Cai: the number of insects in a non-treated section in observation, Tb: the number of insects in a treated-section before treatment, Tai: the number of insects in a treated-section in observation; wherein the non-treated section represents a section where the test spray solution prepared by diluting the formulation without the present compound in Formulation Example 5 with the same amount of water as in the treated-section was sprayed.

[7] = tested on: Adoxophyes orana fasciata; assay: Test Example 8: spray on apple tree, release of Adoxophyes orana fasciata; conditions: in Malus domestica, 168 h; 500 ppm active ingredient; apple tree sprayed with 20 mL/cup; 60 first-instar Adoxophyes orana fasciata; after 7 days; read-out: Death rate
Protocol: On the other hand, an apple tree was planted in a plastic cup, and grown until the seventh-eighth leaf was spread. The apple tree was sprayed with 20 mL/cup of each of the test spray solution. After the test solution was dried, 60 first-instar Adoxophyes orana fasciata were released, and the cup was covered with a plastic cup upside-down which the bottom was cut off and a filter paper was put thereon. After 7 days, the number of living insects was counted, and a death rate was calculated according to the following equation: Death rate (%)=(Number of dead insects/Number of tested insects)×100

Measured: pest or weed control at 500 ppm

CCSc1ccccc1-c1nc2cc(C(F)(F)C(F)(F)F)cnc2n1C [Present Compound 55, 2-(2-ethylsulfanylphenyl)-3-methyl-6-pentafluoroethyl-3H-imidazo[4,5-b]pyridine]
not listed: [7]
≥ 90%: all other assays above

CCS(=O)(=O)c1cc(C(F)(F)F)ccc1-c1nc2cc(SC(F)(F)F)cnc2n1C [compound 306, 2-(2-ethylsulfonyl-4-trifluoromethylphenyl)-3-methyl-6-trifluoromethylsulfanyl-3H-imidazo[4,5-b]pyridine]
≥ 90%: [2] | [3] | [4] | [5]

CCS(=O)(=O)c1cc(-c2ncccn2)ccc1-c1nc2cc(C(F)(F)F)cnc2n1C [compound 333, 2-[2-ethylsulfonyl-4-(pyrimidine-2-yl)-phenyl)-3-methyl-6-trifluoromethyl-3H-imidazo[4,5-b]pyridine]
≥ 90%: [1] | [2] | [3] | [6]

CCS(=O)(=O)c1cc(C(F)(F)F)ccc1-c1nc2cc(C(F)(F)F)cnc2[nH]1 [compound 345, 2-(2-ethylsulfonyl-4-trifluoromethyl-phenyl)-6-trifluoromethyl-3H-imidazo[4,5-b]pyridine]
not listed: [3] | [4]
≥ 90%: all other assays above
